{
  "source": "paper PMC7948982",
  "about": "“Dissecting the low catalytic capability of flavin-dependent halogenases” (The Journal of Biological Chemistry, 2020)",
  "key": {"[1]": {"target": "T1, Thal (tryptophan 6-halogenase) (Streptomyces albogriseolus, UniProt A1E280)", "T1 construct": "recombinant, E. coli BL21(DE3), pET28b; tag residues seen in 7CU1; two protomers per asymmetric unit; GFP11 C-terminal tag only in the mutant library screen", "experiment": "X-ray crystal structure, […] Å", "type": "binding", "details": "apo crystals soaked with FAD and Trp for 7 days, 25 °C"}, "[2]": {"target": "T1, Thal (tryptophan 6-halogenase)", "experiment": "stopped-flow fluorescence, kobs of C4a-hydroxyflavin formation versus halide", "type": "biochemical", "details": "binding to the C4a-hydroperoxyflavin form of the enzyme; two-step model; 20 mM potassium phosphate pH 7.2, 25 °C", "source_text": "stopped-flow fluorescence, kobs of C4a-hydroxyflavin formation versus halide on Thal (tryptophan 6-halogenase)"}, "[3]": {"target": "T2, PrnA (tryptophan 7-halogenase) (Pseudomonas fluorescens, UniProt P95480)", "T2 construct": "construct and source details not given", "experiment": "stopped-flow fluorescence, C4a-hydroxyflavin formation", "type": "biochemical", "details": "with C4a-hydroperoxyflavin enzyme; pH 7.2, 25 °C"}, "[4]": {"target": "T3, PyrH (tryptophan 5-halogenase) (Streptomyces rugosporus, UniProt A4D0H5)", "T3 construct": "construct and source details not given", "experiment": "stopped-flow fluorescence, C4a-hydroxyflavin formation", "type": "biochemical", "details": "with C4a-hydroperoxyflavin enzyme; pH 7.2, 25 °C"}, "[5]": {"target": "T4, (Pseudomonas fluorescens, UniProt P95480)", "T4 construct": "gene prnA; construct and source details not given", "experiment": "multiple turnover halogenation", "type": "biochemical"}, "[6]": {"target": "T1, Thal (tryptophan 6-halogenase)", "experiment": "X-ray crystal structure, […] Å", "type": "binding", "details": "apo crystals soaked, 2 days, 25 °C; tryptophan site"}, "[7]": {"target": "T1, Thal (tryptophan 6-halogenase)", "experiment": "X-ray crystal structure, […] Å", "type": "binding", "details": "crystal soak with FAD, tryptophan and dithionite; flavin site"}, "[8]": {"target": "T5, Thal (tryptophan 6-halogenase) (Streptomyces albogriseolus, UniProt A1E280, K79T)", "T5 construct": "recombinant, E. coli BL21(DE3), pET28b; tag residues seen in 7CU1; two protomers per asymmetric unit; GFP11 C-terminal tag only in the mutant library screen", "T5 sequence (A1E280 whole entry K79T)": "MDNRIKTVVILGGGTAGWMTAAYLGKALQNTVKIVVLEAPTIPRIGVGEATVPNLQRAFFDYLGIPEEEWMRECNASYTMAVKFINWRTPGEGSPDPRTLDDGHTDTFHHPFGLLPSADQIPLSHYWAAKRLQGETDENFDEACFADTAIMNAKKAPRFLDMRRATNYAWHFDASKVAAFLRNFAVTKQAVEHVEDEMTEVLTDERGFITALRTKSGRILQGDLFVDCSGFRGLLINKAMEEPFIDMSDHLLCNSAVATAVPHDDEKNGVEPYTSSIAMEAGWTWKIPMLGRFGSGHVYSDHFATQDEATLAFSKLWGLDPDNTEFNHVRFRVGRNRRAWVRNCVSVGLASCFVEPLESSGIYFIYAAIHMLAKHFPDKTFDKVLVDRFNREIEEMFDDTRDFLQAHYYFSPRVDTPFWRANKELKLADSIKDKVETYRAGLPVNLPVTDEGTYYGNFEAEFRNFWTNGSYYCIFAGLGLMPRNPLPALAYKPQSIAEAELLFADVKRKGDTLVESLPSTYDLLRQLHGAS", "experiment": "stopped-flow absorbance at […] and […] nm, C4a-hydroperoxyflavin formation", "type": "biochemical", "details": "30 μM enzyme, 15 μM FADH-, air-saturated buffer; 20 mM potassium phosphate pH 7.2, 25 °C"}},
  "data": [
    {"smiles": "Cc1cc2nc3c(=O)[nH]c(=O)nc-3n(C[C@H](O)[C@H](O)[C@H](O)COP(=O)(O)OP(=O)(O)OC[C@H]3O[C@@H](n4cnc5c(N)ncnc54)[C@H](O)[C@@H]3O)c2cc1C", "note": "[FAD]", "values": [
      {"measurement": "X-ray crystal structure, 1.91 Å", "setting": "[1]; flavin site", "value": "Thal:FAD:AMP (PDB code 7CU1) were solved with two protomers per asymmetric unit (asu)."}
    ]},
    {"smiles": "I", "note": "[I^−]", "values": [
      {"measurement": "Kd", "setting": "[2]", "value": "64 ± 21", "unit": "µM"},
      {"measurement": "stopped-flow fluorescence, C4a-hydroxyflavin formation", "setting": "[3]", "value": "PrnA and PyrH could also react with I^− to form HOI and C4aOH-FAD"},
      {"measurement": "stopped-flow fluorescence, C4a-hydroxyflavin formation", "setting": "[4]", "value": "PrnA and PyrH could also react with I^− to form HOI and C4aOH-FAD"}
    ]},
    {"smiles": "N[C@@H](Cc1c[nH]c2ccccc12)C(=O)O", "note": "[tryptophan]", "values": [
      {"measurement": "multiple turnover halogenation", "setting": "[5]", "value": "multiple turnover reactions of Thal were carried out and compared with the reactions of PrnA"},
      {"measurement": "X-ray crystal structure, 1.95 Å", "setting": "[6]", "value": "we solved the structure of the Thal:TRP complex (PBD code 7CU0"}
    ]},
    {"smiles": "Cc1cc2c(cc1C)N(C[C@H](O)[C@H](O)[C@H](O)COP(=O)(O)OP(=O)(O)OC[C@H]1O[C@@H](n3cnc4c(N)ncnc43)[C@H](O)[C@@H]1O)c1[nH]c(=O)[nH]c(=O)c1N2", "note": "[FADH^−]", "values": [
      {"measurement": "X-ray crystal structure, 2.40 Å", "setting": "[7]", "value": "Clear electron density for FADH^− was observed in both protomers."},
      {"measurement": "stopped-flow absorbance at 380 and 450 nm, C4a-hydroperoxyflavin formation", "setting": "[8]", "value": "These data indicate that Lys79Thr could still form C4aOOH-FAD"}
    ]},
    {"smiles": "Nc1ncnc2c1ncn2[C@@H]1O[C@H](COP(=O)(O)O)[C@@H](O)[C@H]1O", "note": "[AMP]", "values": [
      {"measurement": "X-ray crystal structure, 1.91 Å", "setting": "[1]; flavin site crystal, AMP not added to the soak", "value": "Thal:FAD:AMP (PDB code 7CU1) were solved with two protomers per asymmetric unit (asu)."}
    ]}
  ]
}
